The source of these data is patent US11197863B2, “Inhibitors of polo-like kinase 4 (PLK4) for treating pediatric embryonal tumors” (ANN AND ROBERT H. LURIE CHILDREN'S HOSPITAL OF CHICAGO, priority 2017, dated 2021).

SMILES strings stand for the structures. Some results are limits rather than exact numbers.

Data set [1] deals with AURKC (Homo sapiens, UniProt Q9UQB9). Briefly: Kinase activity screening (SelectScreen Kinase Profiling). Type of data set: biochemical. Particulars: read-out: kinase activity inhibited.
Source text: (§4) These assays utilized various formats appropriate to the kinase, its substrate and its activity. Formats included the Z-LYTE™ Kinase Assay that determines the differential sensitivity of phosphorylated and non-phosphorylated peptide substrates to proteolytic cleavage using a FRET-based readout, the Adapta™ Universal Kinase Assay that employs a homogeneous, fluorescence-based immunoassay for the detection of ADP produced by kinases and the LanthaScreen™ Eu Kinase Binding Assay that utilizes an Alexa Fluor™ conjugated “tracer” and an Eu-labeled anti-tag antibody to measure binding of a compound to the kinase target [62].
For data set [2], the target named is TEK (Homo sapiens, UniProt Q02763). The data set is described as above. In kind it is biochemical. The note with it: 10-point titration.
Source text: as §4
The test system of data set [3] is CYP450 isoenzymes 1A2, 2B6, 2C8, 2C9, 2C19, 2D6, 2J2, 3A4 and 3A5 (except 3A4 BOMCC). In words: P450 profiling with Vivid substrates. Type of data set: in vitro ADME. Particulars: human, probe Vivid substrates; isoenzymes recommended for testing by FDA guidance except 3A4 BOMCC; 500 nM highest tested concentration.
Data set [4] deals with MON, G401, BT-12, and BT-16 cells. Briefly: Clonogenic assay, rhabdoid tumor cell lines. The note with it: 50-200 nM; analyzed 14 days after treatment. Type of data set: cell-based, human. On the procedure: (§1) For each cell line, 200 cells were seeded into six-well plates, incubated for 14 days, fixed with formalin, stained with Cresyl violet (ACROS Organics, USA), and the number of colonies counted using Image J software (www.imagej.nih.gov).
To evaluate the effect of the PLK4 mutation over cell survival, MON-PLK4-mutated cells were compared with MON-Cas9. […] Controls were treated with 0.1% DMSO. All experiments were performed in triplicates.

Data set [5] relates to DAOY and D283 cells. Briefly: Colony formation assay, MB cell lines. In kind it is cell-based, human. Particulars: 50 nM. On the procedure: as §1
(§2) For proliferation assay DAOY was plated with 5×10^4 cells per well and D283 was plated with 5×10^5 cells per well.

Data set [6] has as its system HFF-SCC058 human fibroblasts. In words: Invasion and migration assays (Transwell). In kind it is cell-based. Particulars: 100 nM, 24 hr. The method, then:
(§3) Both migration and invasion were assessed using a 24-well Transwell chamber system (Corning, USA).[35] MON cells were plated at 20,000 per well for cell migration and at 50,000 per well coated with matrigel (200 μg/ml, 3 hr of solidification) for cell invasion. HFF-SCC058 cells were used as negative controls. […] All experiments were performed in triplicates.

Data set [7] relates to DAOY and D283 cells. Briefly: Migration and invasion assays, MB cell lines. In kind it is cell-based, human. The note with it: 100 nM, 24 hour vs 0.1% DMSO. On the procedure: as §3, §2
The subject of data set [8] is zebrafish larvae. Briefly: In vivo toxicity assay in zebrafish larvae. On the procedure:
Control larvae were exposed to 2% DMSO. Survival and delays in development and morphologic abnormalities were recorded at three time-points (24, 48, and 72 h of treatment). For each condition, groups of 20 larvae were analyzed in triplicates totalizing 420 subjects and 60 controls. Two-way ANOVA was used to analyze the results.

The subject of data set [9] is HFF-SCC058 non-neoplastic human fibroblast cells. In words: Immunofluorescence for gamma-tubulin (centriole number). In kind it is cell-based. The note with it: 100 and 500 nM. On the procedure:
The cells were then blocked in blocking buffer (5% BSA (Jackson Immuno Research Laboratories Inc., USA) in PBST) for 1 hour at RT. The primary antibody ([…] 1:500, Sigma, USA) diluted in 1% BSA in PBST was then added and incubated at 4° C. overnight. Then, the cells were washed with 1×PBS thrice. Secondary antibody (Anti-Rabbit IgG (H+L) F (ab′) 2, 1:500, Sigma, USA) diluted in 1% BSA in PBST was added and incubated at RT for 2 hours. Three time washes with IX PBS were performed. Then, 1 mL of DAPI (Thermo Fisher Scientific, USA) in PBS (0.5 μl of DAPI in 10 ml PBS) was added to the cells and incubated for 10 min at RT. Finally, 3 time washes with 1×PBS were performed and slides were mounted using Mounting Medium (Thermo Fisher Scientific, USA).

For data set [10], the system named is PLK4 mRNA in MON rhabdoid cells. Briefly: qPCR for PLK4 expression. Type of data set: cell-based, human. The note with it: 10, 50, 100 and 500 nM for 24, 48 and 72 hours vs 0.1% DMSO. The method, then: The expression of PLK4 (Hs00179514_m1) in each cell line was verified by TaqMan GE assays (Thermo Fisher Scientific, USA) using the housekeeping gene GAPDH (Hs02758991_g1) as reference. Total RNA (2 μg) was used to make cDNA using the Applied Biosystems High Capacity RNA-to-cDNA kit (Thermo Fisher Scientific). Reactions were performed in triplicate with adequate positive and negative controls. The normalized expression levels were calculated by […] method using the housekeeping gene and a pool of all samples as calibrator.

Data set [11] relates to MON cells. In words: Time-lapse assay, nuclear area and volume. Type of data set: cell-based, human. The note with it: 100 nM, 48 hours, p-value<0.001. The method, then:
Cells were plated in 35 mm glass bottom dishes (Cat #150682, Thermo Fisher Scientific, USA) in normal growth medium and allowed to grow overnight. After the treatment medium was added, imaging began immediately. Brightfield images (20×) were taken every 6 minutes at 10 predetermine fields for 48 hours. Images were processed in ZEN 2.3 software (Zeiss, USA).

Data set [12] relates to RT and MB cell lines. In words: Clonogenic recovery assay. Particulars: 100 nM for 6 days, then 12 days drug-free. In kind it is cell-based, human. On the procedure: For each cell line, 200 cells were seeded into 6-well tissue culture plates. […] On the 7th day, cell were washed with IX PBS twice and then incubated with 0.1% DMSO for an additional 12 days. […] The number of colonies was counted. All experiments were performed in triplicates.

A short description of data set [13]: Brain to plasma ratio (B:P). In kind it is in vivo. Particulars: male, CD-1, mouse, brain and plasma, po, 7.5 mg/kg, fasted male CD-1 mice, 4 hours post-dose, average. The method, then: Raw brain-to-plasma ratios (B:P) were determined by dividing the brain concentration in ng/g by the plasma concentration in ng/g (with plasma, density assumed to be of 1 g/mL). The average B:P ratio was determined to be approximately 0.08±0.3 (FIG. 12). No further CFI-400945 pharmacokinetic studies were done as part of this study.
Male CD-1 mice weighing between 20 and 40 grams were fitted with jugular vein cannulas as appropriate and fasted overnight until 4 hours post-dose. Double route of administration (oral and IV) were tested, with a single dose concentration of 7.5 mg/kg. Plasma and brain were sampled at 6 time-points, starting at 30 minutes (n=3 animals/time-point). Brain was extracted at the same plasma sampling time-point from each animal. Both plasma and brain samples were deproteinated. Brain samples were weighted, homogenized and CFI-400945 was extracted. […] The dosing solution was normalized in a matched matrix (mouse plasm) and analyzed in triplicate in the same analytical batch as the incurred samples (Absorption Systems—Exton, Pa.).

For data set [14], the system named is normal breast cells. Particulars: Sampson et al.; cited from earlier work.
Data set [15] concerns AURKA or other PLK family members. The note with it: cited from earlier work.

What is called IC50 is the concentration needed to halve the response being measured. Usually Kp stands for tissue or fluid exposure divided by exposure in the circulation.

AURKC, sequence (Q9UQB9 whole entry): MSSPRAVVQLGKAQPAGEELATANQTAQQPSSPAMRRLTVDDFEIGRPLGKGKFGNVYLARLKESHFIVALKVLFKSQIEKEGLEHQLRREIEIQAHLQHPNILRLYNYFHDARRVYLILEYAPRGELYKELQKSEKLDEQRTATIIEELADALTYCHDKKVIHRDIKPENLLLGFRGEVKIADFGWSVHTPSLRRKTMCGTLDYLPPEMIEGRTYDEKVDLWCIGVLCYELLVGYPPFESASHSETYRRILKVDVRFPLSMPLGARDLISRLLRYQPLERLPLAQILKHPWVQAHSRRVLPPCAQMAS
TEK, sequence (Q02763 23-1124): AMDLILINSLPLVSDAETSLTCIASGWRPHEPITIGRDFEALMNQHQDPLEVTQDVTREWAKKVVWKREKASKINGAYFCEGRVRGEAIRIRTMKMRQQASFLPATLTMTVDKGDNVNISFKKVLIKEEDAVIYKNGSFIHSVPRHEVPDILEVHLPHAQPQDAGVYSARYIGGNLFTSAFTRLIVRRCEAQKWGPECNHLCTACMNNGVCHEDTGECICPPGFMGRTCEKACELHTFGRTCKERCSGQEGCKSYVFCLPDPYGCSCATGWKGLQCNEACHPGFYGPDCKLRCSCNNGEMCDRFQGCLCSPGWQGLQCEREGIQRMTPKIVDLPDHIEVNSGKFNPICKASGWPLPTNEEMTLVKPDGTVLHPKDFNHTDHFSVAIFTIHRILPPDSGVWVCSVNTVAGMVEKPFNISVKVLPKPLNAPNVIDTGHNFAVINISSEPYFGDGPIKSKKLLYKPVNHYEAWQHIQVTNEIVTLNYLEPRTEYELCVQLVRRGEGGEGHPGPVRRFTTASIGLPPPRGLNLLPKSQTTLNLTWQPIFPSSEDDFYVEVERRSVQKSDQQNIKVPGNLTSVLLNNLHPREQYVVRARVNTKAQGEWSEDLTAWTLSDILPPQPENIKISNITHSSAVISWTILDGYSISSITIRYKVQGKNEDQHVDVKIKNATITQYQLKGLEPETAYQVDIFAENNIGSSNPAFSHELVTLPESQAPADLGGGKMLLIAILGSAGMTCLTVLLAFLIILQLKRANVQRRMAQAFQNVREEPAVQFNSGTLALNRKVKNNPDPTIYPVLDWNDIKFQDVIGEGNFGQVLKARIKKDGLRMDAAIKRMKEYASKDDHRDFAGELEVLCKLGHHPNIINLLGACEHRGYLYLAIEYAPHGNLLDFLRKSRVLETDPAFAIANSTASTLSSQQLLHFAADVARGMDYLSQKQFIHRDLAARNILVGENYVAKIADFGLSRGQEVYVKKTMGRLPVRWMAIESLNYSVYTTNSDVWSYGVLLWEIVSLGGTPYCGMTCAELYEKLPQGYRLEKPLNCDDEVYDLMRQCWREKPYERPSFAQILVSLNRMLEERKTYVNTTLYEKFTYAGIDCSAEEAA

Regarding `COc1ccc2c(c1)[C@]1(C[C@H]1c1ccc3c(/C=C/c4ccc(CN5C[C@@H](C)O[C@@H](C)C5)cc4)n[nH]c3c1)C(=O)N2` [CFI-400945], the inhibition at 0.5 µM in [1] was 84%. Further, the figures for the IC50 in data set [2] and in data set [3] were 109 nM and above 500 nM, respectively. The “colonies (clonogenic assay)” value in data set [4] was “complete absence of colonies”. The colony formation result in [5] is reported as “Complete inhibition of colony formation”. The invasion and migration result in [6] is on record as “no effects were observed”. Also, the “cell migration and invasion” value in data set [7] is “significant decrease in cell migration and invasion”. For the same compound, the larvae deaths entry in [8] (10 nM to 20 μM for 3 days, over 400 larvae) is given as “no increase in larvae deaths”. For the same compound, in [8] (extremely high concentrations (10 and 20 μM)), the morphologic abnormalities entry is “edema and body curvature were consistently observed”. Also, the “paradoxical effect on centriole number” value in [9] is on record as “not observed”. For the same compound, the “PLK4 expression (qPCR)” value in data set [10] is recorded as “time dependent decrease in PLK4 expression”. For the same compound, in [11], the “nuclear area (FC)” value came out at 2.79. Moreover, in data set [11], the “nuclear volume (FC)” value came to 4.69. Besides, the “ability to generate colonies after drug removal” value in [12] is given as “lost their ability to generate colonies”. Also, in data set [13], the Kp at 4 h was around 0.08. In addition, the “effect on normal breast cells” value in data set [14] is reported as “unaffected”. The “inhibition of AURKA or other PLK family members” value in data set [15] is “no significant inhibition”.
